Data taken from ChEMBL document CHEMBL1149163, “Application of predictive QSAR models to database mining: identification and experimental validation of novel anticonvulsant compounds” (J Med Chem, 2004).

Columns and labels:
Rattus norvegicus [1] = species on record: Rattus norvegicus; test: Compound was evaluated for anticonvulsant activity by maximal electroshock seizure test, perorally in rats; format: functional; conditions: po
[2] = Neurologic toxicity from rotarod test in rats, perorally; format: organism-based; conditions: rat, in vivo, po
Mus musculus [3] = test: Compound was evaluated for anticonvulsant activity by maximal electroshock seizure test, intraperitoneally in mice; format: functional; conditions: ip
[4] = Neurologic toxicity from rotarod test in mice; format: organism-based; conditions: mouse, in vivo
[5] = Neurologic toxicity from rotarod test in mice; Value ranges from >100 to <300; format: organism-based; conditions: mouse, in vivo
Mus musculus [6] = test: Compound was evaluated for anticonvulsant activity by maximal electroshock seizure test, intraperitoneally in mice; Value ranges from >100 to <300; format: functional; conditions: ip
Rattus norvegicus [7] = species on record: Rattus norvegicus; test: Compound was evaluated for anticonvulsant activity by maximal electroshock seizure test, perorally in rats; Value ranges from >100 […]; format: functional; conditions: po
[8] = Neurologic toxicity from rotarod test in rats, perorally; Value ranges from >100 to <300; format: organism-based; conditions: rat, in vivo, po
Mus musculus [9] = test: Compound was evaluated for anticonvulsant activity by maximal electroshock seizure test, intraperitoneally in mice; Value ranges from >100 […]; format: functional; conditions: ip
[10] = Neurologic toxicity from rotarod test in mice; Value ranges from >100 […]; format: organism-based; conditions: mouse, in vivo

| Structure (SMILES) | ED50 (Rattus norvegicus [1]) [mg/kg] | TD50 [2] [mg/kg] | TD50 [4] [mg/kg] | TD50 [5] [mg/kg] | other results |
| --- | --- | --- | --- | --- | --- |
| CCNCC(=O)Nc1c(C)cccc1C | 11 | > 500 | 50 |  | ED50 (Mus musculus [3]): 18 mg/kg |
| Cc1cccc(NC(=O)N(C)C)c1 |  | > 30 |  | < 300 |  |
| CON(C)C(=O)C(C)NC(=O)OCc1ccccc1 (configuration not stated) | ~30 | > 30 |  | < 300 | ED50 (Mus musculus [6]): < 300 mg/kg |
| CON(C)C(=O)CNC(=O)OCc1ccccc1 |  | > 30 | 140 |  |  |
| CNC(=O)CNC(=O)OCc1ccccc1 |  |  |  | < 300 | ED50 (Rattus norvegicus [7]): < 30 mg/kg; TD50 [8]: > 100 mg/kg; ED50 (Mus musculus [9]): > 100 mg/kg |
| CN(C)C(=O)CNC(=O)OCc1ccccc1 |  | > 30 | 130 |  |  |
| CCNC(=O)CNC(=O)OCc1ccccc1 |  | > 500 |  |  | TD50 [10]: < 300 mg/kg |
| COCC(NC(C)=O)C(=O)N(C)Cc1ccccc1 (configuration not stated) |  |  |  |  | ED50 (Mus musculus [6]): < 300 mg/kg |
| CCN(CC)C(=O)CNC(=O)OCc1ccccc1 |  | > 30 | 91 |  |  |
| CCN(CC)C(=O)C(C)NC(=O)OCc1ccccc1 (configuration not stated) | < 30 | > 30 | 130 |  | ED50 (Mus musculus [3]): 74 mg/kg |
